{
  "source": "paper PMC4942819",
  "about": "(Scientific Reports, 2016)",
  "key": {"plasma protein binding": {"test": "plasma protein binding", "format": "in vitro ADME", "conditions": "mouse, (M), read-out: Plasma protein binding (converted)", "description": "(§1) The In vitro ADME/T assays were conducted at WuXi AppTec Co. Ltd.(Shanghai). ClogP was calculated with ChemDraw Ultra 14.0. In the study of bi-directional permeability across MDR1-MDCKII cell monolayer, permeability was correlated with the apparent permeability coefficient Papp (cm/s), which was interpreted as follows: Low permeability( Papp ≤ 1.0×10^-6 cm/s), Moderate permeability(1.0×10^-6 < Papp < 5.5×10^-6 cm/s) or High permeability( Papp ≥ 5.5×10^-6 cm/s). ^aaqueous solubility at room temperature."}, "J774A.1 cells": {"system": "J774A.1 cells", "test": "cytotoxicity, MTT assay", "format": "cell-based", "conditions": "Mus musculus, J774.A1", "description": "(§2) The compounds were examined for toxicity (IC50) using MTT assay. Briefly, cells (3 ~ 5 × 10^3 cells/well) were seeded in a 96-well plate. After 24 h incubation, the cells were treated with various concentrations of drugs for 24, 48, 72 h, respectively. Columns one and two in the assay plates contained-media +0.1% DMSO for a negative control ,Then, 20 μl of a 5 mg/mL MTT solution was added to each well, and the plates were incubated for an additional 2~4 h at 37 °C. The medium was subsequently discarded, and DMSO 150 μL was added to dissolve the formazan. Oscillate 15 min, the OD 570 was measured using a Spectra MAX M5 microplate spectrophotometer (Molecular Devices, CA, USA), and the IC50 values were calculated."}, "A549 cells": {"system": "A549 cells", "test": "cytotoxicity, MTT assay", "format": "cell-based", "conditions": "Homo sapiens", "description": "as §2"}, "CYP2D6": {"target": "CYP2D6 (Homo sapiens, UniProt P10635)", "sequence (P10635 whole entry)": "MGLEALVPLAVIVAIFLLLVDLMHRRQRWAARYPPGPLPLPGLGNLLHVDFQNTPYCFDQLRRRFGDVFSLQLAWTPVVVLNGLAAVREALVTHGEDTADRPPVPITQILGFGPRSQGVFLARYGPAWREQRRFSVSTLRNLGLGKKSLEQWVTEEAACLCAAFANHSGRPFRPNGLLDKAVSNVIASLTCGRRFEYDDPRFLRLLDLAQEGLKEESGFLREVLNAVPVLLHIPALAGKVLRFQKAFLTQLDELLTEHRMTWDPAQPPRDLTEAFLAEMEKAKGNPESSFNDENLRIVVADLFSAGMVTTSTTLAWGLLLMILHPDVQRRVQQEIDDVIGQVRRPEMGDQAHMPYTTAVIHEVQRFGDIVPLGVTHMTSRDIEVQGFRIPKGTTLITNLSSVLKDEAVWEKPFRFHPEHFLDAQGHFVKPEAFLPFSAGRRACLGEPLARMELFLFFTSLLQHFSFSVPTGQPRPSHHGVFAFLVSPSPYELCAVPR", "test": "CYP inhibition", "format": "in vitro ADME", "description": "as §1"}, "CYP2C9": {"target": "CYP2C9 (Homo sapiens, UniProt P11712)", "sequence (P11712 whole entry)": "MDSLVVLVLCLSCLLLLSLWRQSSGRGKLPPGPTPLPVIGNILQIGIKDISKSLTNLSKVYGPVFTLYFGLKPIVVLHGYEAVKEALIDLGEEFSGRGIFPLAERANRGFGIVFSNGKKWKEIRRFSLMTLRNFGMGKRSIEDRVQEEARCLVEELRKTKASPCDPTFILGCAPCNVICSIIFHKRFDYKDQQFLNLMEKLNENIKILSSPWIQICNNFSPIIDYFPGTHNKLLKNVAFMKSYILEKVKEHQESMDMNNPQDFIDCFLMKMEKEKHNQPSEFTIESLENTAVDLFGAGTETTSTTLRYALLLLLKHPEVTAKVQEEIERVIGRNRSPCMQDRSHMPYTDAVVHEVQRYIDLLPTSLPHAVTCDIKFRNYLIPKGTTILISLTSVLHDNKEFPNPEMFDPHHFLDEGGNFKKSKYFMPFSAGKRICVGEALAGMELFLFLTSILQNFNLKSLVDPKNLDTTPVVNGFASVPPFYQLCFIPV", "test": "CYP inhibition", "format": "in vitro ADME", "description": "as §1"}, "CYP2C19": {"target": "CYP2C19 (Homo sapiens, UniProt P33261)", "sequence (P33261 whole entry)": "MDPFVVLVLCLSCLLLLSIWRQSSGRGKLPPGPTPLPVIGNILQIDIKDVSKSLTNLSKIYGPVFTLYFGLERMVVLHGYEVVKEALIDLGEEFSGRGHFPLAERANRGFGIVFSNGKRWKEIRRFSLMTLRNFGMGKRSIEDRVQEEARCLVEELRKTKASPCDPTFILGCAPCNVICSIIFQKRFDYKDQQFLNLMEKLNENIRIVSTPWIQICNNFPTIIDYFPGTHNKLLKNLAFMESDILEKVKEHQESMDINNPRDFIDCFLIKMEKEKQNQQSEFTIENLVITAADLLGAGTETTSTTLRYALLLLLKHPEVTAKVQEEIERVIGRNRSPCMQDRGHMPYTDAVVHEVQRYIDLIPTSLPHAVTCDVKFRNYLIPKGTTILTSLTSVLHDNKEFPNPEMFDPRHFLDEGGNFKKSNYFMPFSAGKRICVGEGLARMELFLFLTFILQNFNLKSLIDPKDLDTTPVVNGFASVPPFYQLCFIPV", "test": "CYP inhibition", "format": "in vitro ADME", "description": "as §1"}, "CYP3A4": {"target": "CYP3A4 (Homo sapiens, UniProt P08684)", "sequence (P08684 whole entry)": "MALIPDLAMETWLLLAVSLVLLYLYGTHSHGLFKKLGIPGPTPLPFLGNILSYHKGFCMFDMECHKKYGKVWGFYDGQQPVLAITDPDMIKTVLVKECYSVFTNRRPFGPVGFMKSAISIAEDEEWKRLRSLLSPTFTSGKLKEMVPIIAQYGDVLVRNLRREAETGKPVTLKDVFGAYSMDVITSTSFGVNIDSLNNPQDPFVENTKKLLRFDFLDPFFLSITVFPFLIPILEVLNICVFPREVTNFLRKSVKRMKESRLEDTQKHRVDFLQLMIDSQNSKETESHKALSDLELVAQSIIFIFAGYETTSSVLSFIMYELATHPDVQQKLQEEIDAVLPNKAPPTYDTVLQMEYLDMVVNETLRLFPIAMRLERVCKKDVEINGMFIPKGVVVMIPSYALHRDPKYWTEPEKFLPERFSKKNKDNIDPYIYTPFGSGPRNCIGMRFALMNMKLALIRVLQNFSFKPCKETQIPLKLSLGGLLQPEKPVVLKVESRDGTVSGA", "test": "CYP inhibition", "format": "in vitro ADME", "description": "as §1"}, "[1]": {"test": "in vivo acute toxicity study", "set-up": "species or system BALB/c mice; AST: unit not given here", "conditions": "for ALB / ALP / AST / BUN / CHOL / TP: 1 g/kg i.p., 2 weeks, Mean ± SE, n = 5", "description": "All animal experiments have been approved by the Institutional Animal Care and Treatment Committee of Sichuan University in China and were carried out in accordance with the approved guidelines. 20 BALB/c mice in both sexes were administered with SKLB-TB1001 CMC suspension at 1 g/kg by intraperitoneal injection, control mice remained untreated. Animals were continuously observed for 24 hours after administration. In each group, numbers of deaths and general behavior were recorded within 2 weeks, LD50 values were calculated. 2 weeks later, animals were sacrificed, blood samples were collected from the eye vein for biochemical and hematological tests. The organs and tissues of animals were removed and fixed in 10% formalin and embedded in paraffin for histological evaluation."}, "MDR1": {"system": "MDR1", "test": "bi-directional permeability across MDR1-MDCKII cell monolayer", "format": "in vitro ADME", "conditions": "dog, MDCK-MDR1; MDR1-MDCKII", "description": "as §1"}, "[2]": {"system": "Mycobacterium tuberculosis Erdman", "test": "microplate Alamar blue assay (MABA), MIC", "format": "cell-based"}, "[3]": {"system": "Mycobacterium tuberculosis H37Rv", "test": "microplate Alamar blue assay (MABA), MIC", "format": "cell-based", "conditions": "replicating H37Rv"}},
  "data": [
    {"smiles": "O=[N+]([O-])c1cc(C(F)(F)F)cc2c(=S)nc(N3CCC4(CC3)OCCO4)sc12", "note": "[SKLB-TB1001, 8-nitro-2-(1,4-dioxa-8-azaspiro[4.5]decan-8-yl)-6-(trifluoromethyl)-4H-benzo[e][1,3]thiazine-4-thione]", "values": [
      {"measurement": "fraction unbound", "setting": "plasma protein binding", "value": 0.038},
      {"measurement": "IC50", "setting": "J774A.1 cells", "value": "> 32", "unit": "µg/mL"},
      {"measurement": "IC50", "setting": "A549 cells", "value": "> 100", "unit": "µg/mL"},
      {"measurement": "IC50", "setting": "CYP2D6", "value": "> 10", "unit": "µM"},
      {"measurement": "IC50", "setting": "CYP2C9", "value": "> 10", "unit": "µM"},
      {"measurement": "IC50", "setting": "CYP2C19", "value": "> 10", "unit": "µM"},
      {"measurement": "IC50", "setting": "CYP3A4", "value": "> 10", "unit": "µM"},
      {"measurement": "death in acute single dose toxicity studies", "setting": "[1]; BALB/c mice, 1 g/kg, 14 days", "value": "no death"},
      {"measurement": "pathological changes in heart, liver, lung, kidneys and spleen", "setting": "[1]; BALB/c mice, 1 g/kg, 14 days", "value": "No observable pathological changes"},
      {"measurement": "maximum non-toxic dose", "setting": "[1]; BALB/c mice, single dose, intraperitoneal", "value": "greater than 1 g/kg"},
      {"measurement": "ALB", "setting": "[1]; Female Treatment", "value": "32.18 ± 0.65", "unit": "g/L"},
      {"measurement": "ALP", "setting": "[1]; Female Treatment", "value": "162.00 ± 4.70", "unit": "U/L"},
      {"measurement": "AST", "setting": "[1]; Female Treatment", "value": "154.60 ± 5.57"},
      {"measurement": "BUN", "setting": "[1]; Female Treatment", "value": "7.06 ± 0.35", "unit": "mmol/L"},
      {"measurement": "CHOL", "setting": "[1]; Female Treatment", "value": "3.31 ± 0.08", "unit": "mmol/L"},
      {"measurement": "TP", "setting": "[1]; Female Treatment", "value": "68.56 ± 1.42", "unit": "g/L"},
      {"measurement": "ALB", "setting": "[1]; Male Treatment", "value": "32.84 ± 0.44", "unit": "g/L"},
      {"measurement": "ALP", "setting": "[1]; Male Treatment", "value": "159.20 ± 6.98", "unit": "U/L"},
      {"measurement": "AST", "setting": "[1]; Male Treatment", "value": "153.40 ± 4.30"},
      {"measurement": "BUN", "setting": "[1]; Male Treatment", "value": "7.10 ± 0.60", "unit": "mmol/L"},
      {"measurement": "CHOL", "setting": "[1]; Male Treatment", "value": "3.31 ± 0.07", "unit": "mmol/L"},
      {"measurement": "TP", "setting": "[1]; Male Treatment", "value": "68.38 ± 1.58", "unit": "g/L"},
      {"measurement": "Papp A→B", "setting": "MDR1", "value": 6.96, "unit": "×10⁻⁶ cm/s"},
      {"measurement": "Papp B→A", "setting": "MDR1", "value": 7.27, "unit": "×10⁻⁶ cm/s"},
      {"measurement": "efflux ratio", "setting": "MDR1", "value": 1.04},
      {"measurement": "MIC", "setting": "[2]", "value": "< 0.05", "unit": "µg/mL"},
      {"measurement": "MIC", "setting": "[3]", "value": 0.02, "unit": "µg/mL"}
    ]}
  ]
}
